Results as given in ChEMBL document CHEMBL4732127, “The discovery of a potent and selective pyrazolo-[2,3-e]-[1,2,4]-triazine cannabinoid type 2 receptor agonist” (Eur J Med Chem, 2021).
Blank lines part the entries; values can stand above or below the compound they belong to. Active and inactive are the calls of the source. No cut-off for these calls is given here.

Key:
Cannabinoid receptor 2 [1] = molecular target: T1, Cannabinoid receptor 2 (Homo sapiens, UniProt P34972); experiment: Agonist activity at human CB2 expressed in mouse AtT20 cells assessed as activation of G-protein gated inwardly rectifying K+ channels at 10 uM measured every 2 sec for 2 mins by FLIPR membrane potential assay relative to control; type: cell-based; details: filed as agonist
T1 sequence (P34972 whole entry): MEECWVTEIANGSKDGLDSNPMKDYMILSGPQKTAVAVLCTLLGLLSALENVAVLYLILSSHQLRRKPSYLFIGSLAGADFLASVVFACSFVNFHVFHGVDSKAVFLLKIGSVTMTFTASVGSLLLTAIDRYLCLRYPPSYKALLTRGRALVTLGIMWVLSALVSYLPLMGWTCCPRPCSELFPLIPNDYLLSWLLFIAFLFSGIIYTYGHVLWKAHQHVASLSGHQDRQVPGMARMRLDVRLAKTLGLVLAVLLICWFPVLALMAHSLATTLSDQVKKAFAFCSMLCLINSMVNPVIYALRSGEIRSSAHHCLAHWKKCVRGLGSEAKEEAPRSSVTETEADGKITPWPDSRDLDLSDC

Cannabinoid receptor 1 [2] = molecular target: T2, Cannabinoid receptor 1 (Homo sapiens, UniProt P21554); experiment: Agonist activity at human CB1 expressed in mouse AtT20 cells assessed as activation of G-protein gated inwardly rectifying K+ channels at 10 uM measured every 2 sec for 2 mins by FLIPR membrane potential assay; type: cell-based; details: att20, 2 min
T2 sequence (P21554 whole entry): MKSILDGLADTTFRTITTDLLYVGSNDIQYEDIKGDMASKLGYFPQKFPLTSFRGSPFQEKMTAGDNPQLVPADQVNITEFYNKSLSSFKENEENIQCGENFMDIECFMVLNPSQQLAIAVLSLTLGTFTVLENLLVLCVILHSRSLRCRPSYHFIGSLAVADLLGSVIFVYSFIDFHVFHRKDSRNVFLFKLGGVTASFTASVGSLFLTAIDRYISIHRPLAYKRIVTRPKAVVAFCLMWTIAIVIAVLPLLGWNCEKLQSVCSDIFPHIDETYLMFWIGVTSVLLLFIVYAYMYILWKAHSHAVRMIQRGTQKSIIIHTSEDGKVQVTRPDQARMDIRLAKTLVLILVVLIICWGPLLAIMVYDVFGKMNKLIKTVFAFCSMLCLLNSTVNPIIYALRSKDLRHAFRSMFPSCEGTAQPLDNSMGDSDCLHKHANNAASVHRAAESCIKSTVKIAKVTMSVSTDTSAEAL

Cannabinoid receptor 2 [3] = molecular target: T1, Cannabinoid receptor 2; experiment: Agonist activity at human CB2 expressed in mouse AtT20 cells assessed as activation of G-protein gated inwardly rectifying K+ channels measured every 2 sec for 2 mins by FLIPR membrane potential assay; type: cell-based
Cannabinoid receptor 2 [4] = molecular target: T1, Cannabinoid receptor 2; experiment: Agonist activity at human CB2 expressed in mouse AtT20 cells assessed as activation of G-protein gated inwardly rectifying K+ channels at 10 uM measured every 2 sec for 2 mins by FLIPR membrane potential assay; type: cell-based
Cannabinoid receptor 1 [5] = molecular target: T2, Cannabinoid receptor 1; experiment: Displacement of [3H]-CP55940 from human CB1 expressed in CHO cell membrane incubated for 3 hrs by microbeta scintillation counting method; type: cell membranes
Cannabinoid receptor 2 [6] = molecular target: T1, Cannabinoid receptor 2; experiment: Agonist activity at human CB2 expressed in mouse AtT20 cells assessed as maximal activation of G-protein gated inwardly rectifying K+ channels measured every 2 sec for 2 mins by FLIPR membrane potential assay relative to control; type: cell-based; details: filed as agonist
Cannabinoid receptor 2 [7] = molecular target: T1, Cannabinoid receptor 2; experiment: Displacement of [3H]-CP55940 from human CB2 expressed in CHO cell membrane incubated for 3 hrs by microbeta scintillation counting method; type: cell membranes
Cannabinoid receptor 2 [8] = molecular target: T1, Cannabinoid receptor 2; experiment: Agonist activity at CB2 (unknown origin)
Cannabinoid receptor 1 [9] = molecular target: T2, Cannabinoid receptor 1; experiment: Agonist activity at CB1 (unknown origin)

Activity (Cannabinoid receptor 2 [1]): 51% | Activity (Cannabinoid receptor 1 [2]): < 50%
SMILES: CC(C)(O)COc1ccc(C(F)(F)F)cc1C(=S)Nc1cc(C(C)(C)C)nn1C[C@H]1CCCO1

SMILES: CC(C)(O)COc1ccc(C(F)(F)F)cc1S(=O)(=O)Nc1cc(C(C)(C)C)nn1C[C@H]1CCCO1
pEC50 (Cannabinoid receptor 2 [3]): inactive | Activity (Cannabinoid receptor 2 [4]): < 50% | Activity (Cannabinoid receptor 1 [2]): < 50%

SMILES: CC(C)(O)COc1ccc(C(F)(F)F)cc1-c1nnc2c(C(C)(C)C)nn(C[C@H]3CCCO3)c2n1
EC50 (Cannabinoid receptor 2 [3]; read-out: EC50): 19 nM | Ki (Cannabinoid receptor 1 [5]): > 10000 nM | Emax (Cannabinoid receptor 2 [6]): 115% | Ki (Cannabinoid receptor 2 [7]): 17 nM | Activity (Cannabinoid receptor 1 [2]): < 50%

SMILES: CC(C)(O)COc1ccc(C(F)(F)F)cc1C(=O)Oc1cc(C(C)(C)C)nn1C[C@H]1CCCO1
EC50 (Cannabinoid receptor 2 [3]; read-out: EC50): 1280 nM | Emax (Cannabinoid receptor 2 [6]): 106% | Activity (Cannabinoid receptor 1 [2]): < 50%

Activity (Cannabinoid receptor 2 [1]): 62% | Activity (Cannabinoid receptor 1 [2]): < 50%
SMILES: CC(C)(O)COc1ccc(C(F)(F)F)cc1C#Cc1cc(C(C)(C)C)nn1C[C@H]1CCCO1

SMILES: CC(C)(O)COc1ccc(C(F)(F)F)cc1-c1ccc(-c2cc(C(C)(C)C)nn2C[C@H]2CCCO2)o1
pEC50 (Cannabinoid receptor 2 [3]): inactive | Activity (Cannabinoid receptor 2 [4]): < 50% | Activity (Cannabinoid receptor 1 [2]): < 50%

Activity (Cannabinoid receptor 2 [1]): 54% | Activity (Cannabinoid receptor 1 [2]): < 50%
SMILES: CC(C)(O)COc1ccc(C(F)(F)F)cc1/C=C/c1cc(C(C)(C)C)nn1C[C@H]1CCCO1

SMILES: CC(C)(O)COc1ccc(C(F)(F)F)cc1Nc1cc(C(C)(C)C)nn1C[C@H]1CCCO1
pEC50 (Cannabinoid receptor 2 [3]): inactive | Activity (Cannabinoid receptor 2 [4]): < 50% | Activity (Cannabinoid receptor 1 [2]): < 50%

SMILES: CC(C)(O)COc1ccc(C(F)(F)F)cc1NC(=O)c1cc(C(C)(C)C)nn1C[C@H]1CCCO1
EC50 (Cannabinoid receptor 2 [3]; read-out: EC50): 6760 nM | EC50 (Cannabinoid receptor 2 [3]; read-out: pEC50 (converted)): 5250 nM | Emax (Cannabinoid receptor 2 [6]): 106% | Activity (Cannabinoid receptor 1 [2]): < 50%

SMILES: CC(C)(O)COc1ccc(C(F)(F)F)cc1C(=O)Nc1cc(C(C)(C)C)nn1C[C@H]1CCCO1
Ki (Cannabinoid receptor 1 [5]): > 10000 nM | Ki (Cannabinoid receptor 2 [7]): > 10000 nM

SMILES: CN(C(=O)c1cc(C(F)(F)F)ccc1OCC(C)(C)O)c1cc(C(C)(C)C)nn1C[C@H]1CCCO1
pEC50 (Cannabinoid receptor 2 [3]): inactive | Activity (Cannabinoid receptor 2 [4]): < 50% | Activity (Cannabinoid receptor 1 [2]): < 50%

SMILES: CC(C)(O)COc1ccc(C(F)(F)F)cc1CCc1cc(C(C)(C)C)nn1C[C@H]1CCCO1
pEC50 (Cannabinoid receptor 2 [3]): inactive | Activity (Cannabinoid receptor 2 [4]): < 50% | Activity (Cannabinoid receptor 1 [2]): < 50%

SMILES: CC(C)(O)COc1ccc(C(F)(F)F)cc1-c1ccc2c(C(C)(C)C)nn(C[C@H]3CCCO3)c2c1
EC50 (Cannabinoid receptor 2 [3]; read-out: EC50): 673 nM | Emax (Cannabinoid receptor 2 [6]): 104% | Activity (Cannabinoid receptor 1 [2]): < 50%

SMILES: CC(C)(O)COc1ccc(C(F)(F)F)cc1-c1ncc2c(C(C)(C)C)nn(C[C@H]3CCCO3)c2n1
EC50 (Cannabinoid receptor 2 [3]; read-out: EC50): 41 nM | Emax (Cannabinoid receptor 2 [6]): 106% | Activity (Cannabinoid receptor 1 [2]): < 50%

SMILES: CC(C)(O)COc1ccc(C(F)(F)F)cc1CNc1cc(C(C)(C)C)nn1C[C@H]1CCCO1
pEC50 (Cannabinoid receptor 2 [3]): inactive | Activity (Cannabinoid receptor 2 [4]): < 50% | Activity (Cannabinoid receptor 1 [2]): < 50%

Activity (Cannabinoid receptor 2 [1]): 54% | Activity (Cannabinoid receptor 1 [2]): < 50%
SMILES: CC(C)(O)COc1ccc(C(F)(F)F)cc1NC(=O)Nc1cc(C(C)(C)C)nn1C[C@H]1CCCO1

SMILES: CC(C)(O)COc1ccc(C(F)(F)F)cc1-c1cn(-c2cc(C(C)(C)C)nn2C[C@H]2CCCO2)nn1
pEC50 (Cannabinoid receptor 2 [3]): inactive | Activity (Cannabinoid receptor 2 [4]): < 50% | Activity (Cannabinoid receptor 1 [2]): < 50%

SMILES: CC(C)(O)COc1ccc(C(F)(F)F)cc1-c1cc(C(C)(C)C)nn1C[C@H]1CCCO1
pEC50 (Cannabinoid receptor 2 [3]): inactive | Activity (Cannabinoid receptor 2 [4]): < 50% | Activity (Cannabinoid receptor 1 [2]): < 50%

SMILES: Cn1c(C(C)(C)C)c/c(=N\C(=O)c2cc(C(F)(F)F)ccc2OCC(C)(C)O)n1C[C@H]1CCCO1
EC50 (Cannabinoid receptor 2 [8]): 19 nM | Ki (Cannabinoid receptor 1 [5]): > 10000 nM | Ki (Cannabinoid receptor 2 [7]): 5.9 nM | EC50 (Cannabinoid receptor 1 [9]): > 10000 nM
